The values that follow come from patent publication US20030207924A1, “Compounds that modulate PPAR activity and methods of preparation” (priority 2002, published 2003).

The target of test [1] is T1, hPPARα chimeric receptor (Homo sapiens, UniProt Q07869).
T1 construct: "expression plasmids encoding hPPARα, hPPARβ or mPPARγ chimeric receptors"
T1 sequence (Q07869 200-468 limits assumed): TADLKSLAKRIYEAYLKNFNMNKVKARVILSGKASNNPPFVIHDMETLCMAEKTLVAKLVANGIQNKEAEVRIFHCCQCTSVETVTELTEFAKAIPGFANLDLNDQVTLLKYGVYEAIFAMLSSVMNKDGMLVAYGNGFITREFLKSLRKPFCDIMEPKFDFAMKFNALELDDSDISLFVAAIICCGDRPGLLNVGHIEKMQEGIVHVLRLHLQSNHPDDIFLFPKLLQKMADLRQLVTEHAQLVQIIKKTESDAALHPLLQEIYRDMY
The test can be described thus: Transient transfection assay in HepG2 cells, Gal4-hPPARα chimeric receptor, luciferase reporter (Test A). The class given is cell-based. The conditions noted are these: HepG2 cells, hPPARα chimeric receptor, luciferase reporter, 24 hours; read-out: EC50-α (Hep G2-hAlpha EC50). As for the experimental part:
(§1) 1. Test A. Transient Transfections Assay Using the HepG2 Hepatoma Cell Line.
HepG2 cells were transiently transfected with an expression plasmids encoding hPPARα, hPPARβ or mPPARγ chimeric receptors and a reporter containing the yeast upstream activating sequence (UAS) upstream of the viral E1B promoter controlling a luciferase reporter gene. In addition, the plasmid pRSVβ-gal was used to control for transfection efficiency. HepG2 cells were grown in DMEM supplemented with 10% FBS and […] non-essential amino acid. On the first day, cells were split into 100 mm dishes at 2.5×10^6/dish and incubated overnight at 37° C./5% CO2. On the second day the cells were transiently transfected with plasmid DNA encoding a chimeric receptor, the luciferase reporter gene; and β-gal. For each 100 mm dish, 15 μg of lucifease reporter (PG5E1b) DNA, 15 μg of Gal4-PPAR chimeric receptor DNA, and 1.5 μg of β-gal plasmid DNA were mixed with 1.4 ml of opti-MEM in the tube. 28 μl of LipoFectamine-2000 reagent was added to 1.4 ml of opti-MEM in the tube, and incubate for 5 min at RT. The diluted Lipofectamine-2000 reagent was combined with the DNA mixture, and incubate for 20 min at RT. After fresh medium was added to each 100 mm dish of cells, 2.8 ml of Lipofectamine2000-DNA mixture was added dropwise to the 100 mm dish containing 14 ml of medium, and incubate 37° C. overnight. On day three cells were trypsinized off the 100 mm dishes and re-plated on 96 well plates. Cells were plated at 2.5×10^4 cells per well in 150 μl of media and 50 μl of compound diluted by media was added. The test compounds added were in the range from 50 μM to 50 pM. After addition of compounds, the plates were incubated at 37° C. for 24 hours. Subsequently cells were washed with once with 100 μl of PBS, lysed, and processed for measuring luciferase and β-gal activity using Dual-Light luciferase kit from Tropix®, according to the manufacturer's recommendations, on an EG&G Bethold MicroLumat LB96P luminometer. EC50 values were obtained using the GraphPad Prism™ program. […] Accordingly, the compounds of the present invention should find considerable therapeutic applications for hypercholesterolemia and hyperlipidemia.
On the technique in general: A reporter such as luciferase makes a cellular process visible.

Test [2] deals with T2, hPPARβ chimeric receptor (Homo sapiens, UniProt Q03181).
T2 construct: "expression plasmids encoding hPPARα, hPPARβ or mPPARγ chimeric receptors"
T2 sequence (Q03181 171-441 limits assumed): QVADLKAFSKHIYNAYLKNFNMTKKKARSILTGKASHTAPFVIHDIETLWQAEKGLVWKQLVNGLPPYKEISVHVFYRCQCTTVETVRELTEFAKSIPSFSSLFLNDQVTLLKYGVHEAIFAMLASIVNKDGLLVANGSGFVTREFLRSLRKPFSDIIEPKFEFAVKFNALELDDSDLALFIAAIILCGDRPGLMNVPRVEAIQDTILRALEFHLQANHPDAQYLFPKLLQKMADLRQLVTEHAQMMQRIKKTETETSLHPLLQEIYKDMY
Nature of the test: Transient transfection assay in HepG2 cells, Gal4-hPPARβ chimeric receptor, luciferase reporter (Test A). The class given is cell-based. The conditions noted are these: for EC50-β (Hep G2-hBeta EC50): HepG2 cells, hPPARβ chimeric receptor, luciferase reporter, 24 hours. Here is the method:
as §1
HepG2 cells were transiently transfected with an expression plasmids encoding hPPARα, hPPARβ or mPPARγ chimeric receptors and a reporter containing the yeast upstream activating sequence (UAS) upstream of the viral E1B promoter controlling a luciferase reporter gene. In addition, the plasmid pRSVβ-gal was used to control for transfection efficiency. HepG2 cells were grown in DMEM supplemented with 10% FBS and […] non-essential amino acid. On the first day, cells were split into 100 mm dishes at 2.5×10^6/dish and incubated overnight at 37° C./5% CO2. On the second day the cells were transiently transfected with plasmid DNA encoding a chimeric receptor, the luciferase reporter gene; and β-gal. For each 100 mm dish, 15 μg of lucifease reporter (PG5E1b) DNA, 15 μg of Gal4-PPAR chimeric receptor DNA, and 1.5 μg of β-gal plasmid DNA were mixed with 1.4 ml of opti-MEM in the tube. 28 μl of LipoFectamine-2000 reagent was added to 1.4 ml of opti-MEM in the tube, and incubate for 5 min at RT. The diluted Lipofectamine-2000 reagent was combined with the DNA mixture, and incubate for 20 min at RT. After fresh medium was added to each 100 mm dish of cells, 2.8 ml of Lipofectamine2000-DNA mixture was added dropwise to the 100 mm dish containing 14 ml of medium, and incubate 37° C. overnight. On day three cells were trypsinized off the 100 mm dishes and re-plated on 96 well plates. Cells were plated at 2.5×10^4 cells per well in 150 μl of media and 50 μl of compound diluted by media was added. The test compounds added were in the range from 50 μM to 50 pM. After addition of compounds, the plates were incubated at 37° C. for 24 hours. Subsequently cells were washed with once with 100 μl of PBS, lysed, and processed for measuring luciferase and β-gal activity using Dual-Light luciferase kit from Tropix®, according to the manufacturer's recommendations, on an EG&G Bethold MicroLumat LB96P luminometer. EC50 values were obtained using the GraphPad Prism™ program.

Structures are written as SMILES.

`Cc1nc(-c2ccc(C(F)(F)F)cc2)sc1CSc1ccc([C@@H]2CC2C(=O)O)cc1` (stereo in doubt) [Example 12, 2-{4-[4-Methyl-2-(4-trifluoromethyl-phenyl)-thiazol-5-ylmethylsulfanyl]-phenyl}-cyclopropanecarboxylic acid]: the 50% effective concentration (EC50) (as a rule, the concentration at which the effect is half-maximal) in test [1] was found to be 0.135 µM; in test [2] it was 0.303 µM.
For `Cc1cc(SCc2sc(-c3ccc(C(F)(F)F)cc3)nc2C)c(C)cc1OCC(=O)O` [Example 1, {2,5-Dimethyl-4-[4-methyl-2-(4-trifluoromethyl-phenyl)-thiazol-5-ylmethylsulfanyl]-phenoxy}-acetic acid], in that order: 0.042 µM and 0.0144 µM.
For `CCc1cc(OCC(=O)O)c(C)cc1SCc1sc(-c2ccc(C(F)(F)F)cc2)nc1C` [Example 2, {5-Ethyl-2-methyl-4-[4-methyl-2-(4-trifluoromethyl-phenyl)-thiazol-5-ylmethylsulfanyl]-phenoxy}-acetic acid], in that order: 1.23 µM and 0.361 µM.
On to `Cc1cc(SCc2sc(-c3ccc(C(F)(F)F)cc3)nc2C)c(C(C)C)cc1OCC(=O)O` [Example 3, {5-Isopropyl-2-methyl-4-[4-methyl-2-(4-trifluoromethyl-phenyl)-thiazol-5-ylmethylsulfanyl]-phenoxy}-acetic acid], for which the EC50 in test [1] worked out at 0.538 µM; in test [2], 1.28 µM.
In the case of `Cc1cc(SCc2sc(-c3ccc(C(F)(F)F)cc3)nc2C)cc(C)c1OCC(=O)O` [Example 4, {2,6-Dimethyl-4-[4-methyl-2-(4-trifluoromethyl-phenyl)-thiazol-5-ylmethylsulfanyl]-phenoxy}-acetic acid], the concentration for a half-maximal effect (EC50) in test [1] worked out at 0.161 µM; in test [2], 0.0234 µM.
On to `COc1cc(OCC(=O)O)c(C)cc1SCc1sc(-c2ccc(C(F)(F)F)cc2)nc1C` [Example 5, {5-Methoxy-2-methyl-4-[4-methyl-2-(4-trifluoromethyl-phenyl)-thiazol-5-ylmethylsulfanyl]-phenoxy}-acetic acid], for which the EC50 is 0.121 µM in test [1] and 0.0023 µM in test [2].
Turning to `COc1cc(SCc2sc(-c3ccc(C(F)(F)F)cc3)nc2C)c(C)cc1OCC(=O)O` [Example 6, {2-Methoxy-5-methyl-4-[4-methyl-2-(4-trifluoromethyl-phenyl)-thiazol-5-ylmethylsulfanyl]-phenoxy}-acetic acid], the EC50 was 1.39 µM in test [1] and 1.24 µM in test [2].
In the same order, the values of `Cc1cc(OCC(=O)O)cc(C)c1SCc1sc(-c2ccc(C(F)(F)F)cc2)nc1C` [Example 7, {3,5-Dimethyl-4-[4-methyl-2-(4-trifluoromethyl-phenyl)-thiazol-5-ylmethylsulfanyl]-phenoxy}-acetic acid] are 1.34 µM and 0.473 µM.
As for `COc1cc(OCC(=O)O)cc(C)c1SCc1sc(-c2ccc(C(F)(F)F)cc2)nc1C` [Example 8, {3-Methoxy-5-methyl-4-[4-methyl-2-(4-trifluoromethyl-phenyl)-thiazol-5-ylmethylsulfanyl]-phenoxy}-acetic acid], the EC50 in test [1] was determined as 0.84 µM; in test [2], 0.0453 µM.
Turning to `Cc1cc(OCC(=O)O)c(C(C)C)cc1SCc1sc(-c2ccc(C(F)(F)F)cc2)nc1C` [Example 9, {2-Isopropyl-5-methyl-4-[4-methyl-2-(4-trifluoromethyl-phenyl)-thiazol-5-ylmethylsulfanyl]-phenoxy}-acetic acid], the figures for the EC50 in test [1] and in test [2] were 5.75 µM and 0.891 µM, respectively.
For `Cc1nc(-c2ccc(C(F)(F)F)cc2)sc1CSc1ccc(C(C)(C)C(=O)O)cc1` [Example 11, 2-Methyl-2-{4-[4-methyl-2-(4-trifluoromethyl-phenyl)-thiazol-5-ylmethylsulfanyl]-phenyl}-propionic acid], the half-maximal effective concentration (EC50) in test [1] came to 0.507 µM; in test [2] it was 0.0488 µM.
For the compound `Cc1nc(-c2ccc(C(F)(F)F)cc2)sc1CSc1ccc(C2(C(=O)O)CC2)cc1` [Example 13, 1-{4-[4-Methyl-2-(4-trifluoromethyl-phenyl)-thiazol-5-ylmethylsulfanyl]-phenyl}-cyclopropanecarboxylic acid], the values for the EC50 in test [1] and in test [2] were 1.1 µM and 0.0476 µM, respectively.
In the same order, the values of `Cc1nc(-c2ccc(C(F)(F)F)cc2)sc1CSc1ccc(C2(C(=O)O)CCCC2)cc1` [Example 14, 1-{4-[4-Methyl-2-(4-trifluoromethyl-phenyl)-thiazol-5-ylmethylsulfanyl]-phenyl}-cyclopentanecarboxylic acid] are 0.992 µM and 6.74 µM.
As for `Cc1nc(-c2ccc(C(F)(F)F)cc2)sc1CSc1ccc(OCCC(=O)O)cc1` [Example 16, 3-{4-[4-Methyl-2-(4-trifluoromethyl-phenyl)-thiazol-5-ylmethylsulfanyl]-phenoxy}-propionic acid], the EC50 in test [1] came to 1.23 µM; in test [2], 1.95 µM.
`COc1cc(C(C)(C)C(=O)O)ccc1SCc1sc(-c2ccc(C(F)(F)F)cc2)nc1C` [Example 17, 2-{3-Methoxy-4-[4-methyl-2-(4-trifluoromethyl-phenyl)-thiazol-5-ylmethylsulfanyl]-phenyl}-2-methyl-propionic acid]: the EC50 in test [1] was 0.0055 µM; in test [2], 0.0199 µM.
In test [2], `Cc1nc(-c2ccc(C(F)(F)F)cc2)sc1CSc1ccc(C(C)(C)CC(=O)O)cc1` [Example 18, 3-Methyl-3-{4-[4-methyl-2-(4-trifluoromethyl-phenyl)-thiazol-5-ylmethylsulfanyl]-phenyl}-butyric acid] yielded an EC50 of 0.803 µM.
On to `CC(=O)Nc1cc(OCC(=O)O)c(C)cc1SCc1sc(-c2ccc(C(F)(F)F)cc2)nc1C` [Example 25, 2-[5-(acetylamino)-2-methyl-4-({4-methyl-2-[4-(trifluoromethyl)phenyl](1,3-thiazol-5-yl)}methylthio)phenoxy]acetic acid], for which, in test [2], the “EC50-β (Hep G2-hBeta EC50)” value was found to be 2000 µM.
Regarding `COc1cc(CN2CCCC2C(=O)O)ccc1SCc1sc(-c2ccc(C(F)(F)F)cc2)nc1C` (stereo not shown) [Example 29], in test [2], the “EC50-β (Hep G2-hBeta EC50)” value stood at 2000 µM.
On to `Cc1nc(-c2ccc(C(F)(F)F)cc2)sc1CSc1ccc(C2CCC(CC(=O)O)CC2)cc1` (stereo not shown) [Example 33, (4-{4-[4-Methyl-2-(4-trifluoromethyl-phenyl)-thiazol-5-ylmethylsulfanyl]-phenyl}-cyclohexyl)-acetic acid], for which the “EC50-β (Hep G2-hBeta EC50)” value in test [2] amounted to 2000 µM.
